Measurements published in ChEMBL document CHEMBL6092142, “Discovery and preclinical profile of YK-2168, a differentiated selective CDK9 inhibitor in clinical development” (Bioorg Med Chem Lett, 2024).
Each block holds one molecule with its values, some of them ahead of it.

Tests used:
MV4-11 [1] = assay: Antiproliferative activity against human MV4-11 cells assessed as cell viability; assay type: functional, cell-based
[2] = Selectivity index, ratio of IC50 for inhibition of CDK1 (unknown origin) to IC50 for inhibition of CDK9 (unknown origin)
[3] = Selectivity index, ratio of IC50 for inhibition of CDK2 (unknown origin) to IC50 for inhibition of CDK9 (unknown origin)
[4] = Clearance in CD-1 mouse at 2 mg/kg, iv; assay type: ADME, organism-based; conditions: in vivo
[5] = AUC (0 to 24 hrs) in CD-1 mouse at 2 mg/kg, iv; assay type: ADME, organism-based; conditions: in vivo
[6] = Half life in CD-1 mouse at 2 mg/kg, iv; assay type: ADME, organism-based; conditions: in vivo
[7] = Volume of distribution in CD-1 mouse at 2 mg/kg, iv; assay type: ADME, organism-based; conditions: in vivo
[8] = target: Cyclin-dependent kinase 1 (Homo sapiens, UniProt P06493); assay: Inhibition of CDK1 (unknown origin)
Chain of Cyclin-dependent kinase 1 (P06493 whole entry): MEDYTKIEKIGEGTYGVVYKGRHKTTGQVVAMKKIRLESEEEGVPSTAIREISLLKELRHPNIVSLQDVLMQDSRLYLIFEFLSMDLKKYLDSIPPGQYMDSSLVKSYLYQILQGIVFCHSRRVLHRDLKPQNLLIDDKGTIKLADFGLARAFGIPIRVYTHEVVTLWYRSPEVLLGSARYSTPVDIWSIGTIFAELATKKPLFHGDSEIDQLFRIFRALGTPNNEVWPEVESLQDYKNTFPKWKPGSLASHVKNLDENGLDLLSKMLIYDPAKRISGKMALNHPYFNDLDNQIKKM

[9] = Toxicity in mouse assessed as change in body weight at 10 mg/kg, iv measured upto 28 days; assay type: organism-based; conditions: in vivo, 672 h, time < 28 day
MV4-11 [10] = assay: Antitumor activity against human MV4-11 cells xenografted in mouse assessed as tumor growth inhibition at 10 mg/kg, iv measured upto 28 days; assay type: functional; conditions: MV4-11, 672 h, time <= 28 day, read-out: TGI
[11] = target: Cyclin-dependent kinase 2 (Homo sapiens, UniProt P24941); assay: Inhibition of CDK2 (unknown origin)

SMILES: c1cc(-c2cnn(CC3CC3)c2)c2cc(C3CCNCC3)[nH]c2n1
- IC50 (MV4-11 [1]): 252 nM
- Ratio IC50 [2]: 48.8
- Ratio IC50 [3]: 51.8

SMILES: CC(=O)N[C@@H]1CCC[C@H](C(=O)Nc2cc(-c3cnn4c3CC(C)(C)C4)c(Cl)cn2)C1 [ZEMIRCICLIB]
- clearance [4]: 78.1 mL/min/kg
- AUC(0-t) ([5]; CD-1, mouse): 0.992 µM·h
- half-life ([6]; CD-1, mouse): 6 min
- Vd ([7]; CD-1, mouse, read-out: Vd): 0.52 L/kg

SMILES: COc1cc(F)ccc1-c1cc(Nc2cc(CS(C)(=N)=O)ccn2)ncc1F (stereo unspecified) [ENITOCICLIB]
- IC50 [8]: 250 nM
- Activity [9]: Non-toxic
- AUC ([5]; mouse, iv, 2 mg/kg): 2.686 µM·h
- IC50 (MV4-11 [1]): 92.4 nM
- inhibition in vivo at 10 mg/kg (MV4-11 [10]): 65%
- IC50 [11]: 231 nM
- t1/2 ([6]; mouse, iv, 2 mg/kg): 26.4 min
- Vd ([7]; mouse, iv, 2 mg/kg): 1.27 L/kg

Other lines, results leading:

- IC50 (MV4-11 [1]): 52 nM
- Ratio IC50 [2]: 107
- Ratio IC50 [3]: 41
SMILES: COCC(C)N1CCC(c2cc3c(-c4cnn(CC5CC5)c4)c(Cl)cnc3[nH]2)CC1 (stereo unspecified)

- IC50 (MV4-11 [1]): 14.7 nM
- Ratio IC50 [2]: 11.5
- Ratio IC50 [3]: 14.5
SMILES: Clc1cnc2[nH]c(C3CCNCC3)cc2c1-c1cnn(CC2CC2)c1
